In publication PMC3944532, “Mode of Action of Diterpene and Characterization of Related Metabolites from the Soft Coral, Xenia elongata” (Marine Drugs, 2014):
Where two headings read alike, the source gives them in different places.

Tests used:
W2 cells = experiment: Apoptosis induction assay (MTT viability), apoptosis competent W2 cells; assay type: cell-based, mouse; conditions: for optimal concentration for apoptosis induction: MTT, 0 to 48 h, apoptosis induction = at least 20% death of W2 cells and 10% or higher growth of D3 cells; for cell death in W2 cells: apoptosis competent W2
Procedure: In order to assess the pro-apoptotic activities of these compounds as a marker for their potential anticancer efficacy, methanol soluble fractions of Xenia extracts were tested for apoptosis induction in an MTT assay using the apoptosis competent W2 and apoptosis resistant D3 cells, as described in our previous work. […] To quantify apoptosis induction, viability was determined using an MTT assay. Measurements were taken at time 0 and 48 h after addition of compounds in different concentrations. Viability was calculated as the difference between time 0 (addition of compound) and 48 h. Apoptosis induction was defined as at least 20% death of W2 cells and a 10% or higher growth of D3 cells by MTT assay. The optimal concentration of the compounds for apoptosis induction was determined based on the dose response of the two cells lines by MTT assay. […] Treatment of W2 and D3 cells with 0.1 µM staurosporine, a protein kinase inhibitor and potent inducer of apoptosis, was included as a positive control for apoptosis induction and for comparison. Thus, the diterpenes we have isolated and characterized effectively and specifically activate apoptosis in immortalized mammalian epithelial cells.
Apoptosis induction in the presence of compounds (2, 3) was carried out in the following manner. W2 (apoptosis competent) and D3 (apoptosis defective) cells were plated in 96- and 6-well plates and incubated for 24 h, after which they were evenly spread at about 50% confluency. At this time, compounds dissolved in DMSO and diluted in growth medium (DMEM) were added to the cells at various concentrations. DMSO concentration was kept at 0.5% in all wells. Plates were incubated for 24, 48 and 72 h. Cell viability was determined using a modification of the MTT assay, where the reduction of yellow tertazolium salt (MTT—[…]) to purple formazan indicates mitochondrial activity, and thus cell viability. Cells were incubated with 0.5 mg/mL MTT for 3 h. Supernatant was aspirated and DMSO was added to dissolve the formazan crystals. After 30 min incubation at 37 °C, with shaking, absorbance was read at 570 nm on a Spectra MAX 250 (Molecular Devices) plate reader. Differential growth from time 0 to 48 h was calculated. Starurosporine, an apoptosis inducer, and DMSO were used as positive and negative controls, respectively.

D3 cells = experiment: Apoptosis induction assay (MTT viability), apoptosis resistant D3 cells deficient in Bak and Bax; assay type: cell-based, mouse
Procedure: In order to assess the pro-apoptotic activities of these compounds as a marker for their potential anticancer efficacy, methanol soluble fractions of Xenia extracts were tested for apoptosis induction in an MTT assay using the apoptosis competent W2 and apoptosis resistant D3 cells, as described in our previous work. […] To quantify apoptosis induction, viability was determined using an MTT assay. Measurements were taken at time 0 and 48 h after addition of compounds in different concentrations. Viability was calculated as the difference between time 0 (addition of compound) and 48 h. Apoptosis induction was defined as at least 20% death of W2 cells and a 10% or higher growth of D3 cells by MTT assay. The optimal concentration of the compounds for apoptosis induction was determined based on the dose response of the two cells lines by MTT assay. […]
Apoptosis induction in the presence of compounds (2, 3) was carried out in the following manner. […] Cell viability was determined using a modification of the MTT assay, where the reduction of yellow tertazolium salt (MTT—[…]) to purple formazan indicates mitochondrial activity, and thus cell viability. […] After 30 min incubation at 37 °C, with shaking, absorbance was read at 570 nm on a Spectra MAX 250 (Molecular Devices) plate reader. Differential growth from time 0 to 48 h was calculated. […]

HDAC5 = HDAC5 (Homo sapiens, UniProt Q9UQL6); experiment: HDAC inhibition assay, class II A, fluorogenic HDAC Class2a substrate; conditions: up to 100 µM
Sequence of HDAC5 (Q9UQL6 whole entry): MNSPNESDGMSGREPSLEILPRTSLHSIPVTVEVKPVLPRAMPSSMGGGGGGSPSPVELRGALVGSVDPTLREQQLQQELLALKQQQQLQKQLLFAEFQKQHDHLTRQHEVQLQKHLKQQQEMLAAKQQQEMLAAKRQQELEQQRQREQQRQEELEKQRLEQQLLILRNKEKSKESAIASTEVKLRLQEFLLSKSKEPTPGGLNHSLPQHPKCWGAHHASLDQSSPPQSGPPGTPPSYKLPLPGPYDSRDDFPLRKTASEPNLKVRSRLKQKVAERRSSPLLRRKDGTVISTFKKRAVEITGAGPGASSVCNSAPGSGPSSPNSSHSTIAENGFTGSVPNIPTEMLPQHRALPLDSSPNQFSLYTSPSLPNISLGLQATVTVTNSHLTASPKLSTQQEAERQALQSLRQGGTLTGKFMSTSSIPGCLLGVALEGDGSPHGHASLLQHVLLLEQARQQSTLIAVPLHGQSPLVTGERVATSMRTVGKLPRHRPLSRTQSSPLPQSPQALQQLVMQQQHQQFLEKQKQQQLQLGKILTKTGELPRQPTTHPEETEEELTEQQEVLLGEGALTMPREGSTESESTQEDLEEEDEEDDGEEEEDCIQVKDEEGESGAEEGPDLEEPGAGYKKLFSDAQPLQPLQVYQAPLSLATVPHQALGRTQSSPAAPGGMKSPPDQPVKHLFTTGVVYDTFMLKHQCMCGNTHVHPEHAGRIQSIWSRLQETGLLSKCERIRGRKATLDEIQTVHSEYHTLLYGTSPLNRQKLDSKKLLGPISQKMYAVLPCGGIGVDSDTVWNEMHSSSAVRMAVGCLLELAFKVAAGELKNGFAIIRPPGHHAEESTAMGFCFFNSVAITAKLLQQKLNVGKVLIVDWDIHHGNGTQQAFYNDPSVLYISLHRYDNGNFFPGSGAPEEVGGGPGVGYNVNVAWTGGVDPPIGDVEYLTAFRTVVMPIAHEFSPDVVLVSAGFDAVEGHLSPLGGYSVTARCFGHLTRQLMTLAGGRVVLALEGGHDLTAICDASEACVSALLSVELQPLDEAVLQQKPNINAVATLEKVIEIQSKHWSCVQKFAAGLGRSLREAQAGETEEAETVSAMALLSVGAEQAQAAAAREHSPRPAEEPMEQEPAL

HDAC4 = HDAC4 (Homo sapiens, UniProt P56524); experiment: as above; conditions: up to 100 µM
Sequence of HDAC4 (P56524 whole entry): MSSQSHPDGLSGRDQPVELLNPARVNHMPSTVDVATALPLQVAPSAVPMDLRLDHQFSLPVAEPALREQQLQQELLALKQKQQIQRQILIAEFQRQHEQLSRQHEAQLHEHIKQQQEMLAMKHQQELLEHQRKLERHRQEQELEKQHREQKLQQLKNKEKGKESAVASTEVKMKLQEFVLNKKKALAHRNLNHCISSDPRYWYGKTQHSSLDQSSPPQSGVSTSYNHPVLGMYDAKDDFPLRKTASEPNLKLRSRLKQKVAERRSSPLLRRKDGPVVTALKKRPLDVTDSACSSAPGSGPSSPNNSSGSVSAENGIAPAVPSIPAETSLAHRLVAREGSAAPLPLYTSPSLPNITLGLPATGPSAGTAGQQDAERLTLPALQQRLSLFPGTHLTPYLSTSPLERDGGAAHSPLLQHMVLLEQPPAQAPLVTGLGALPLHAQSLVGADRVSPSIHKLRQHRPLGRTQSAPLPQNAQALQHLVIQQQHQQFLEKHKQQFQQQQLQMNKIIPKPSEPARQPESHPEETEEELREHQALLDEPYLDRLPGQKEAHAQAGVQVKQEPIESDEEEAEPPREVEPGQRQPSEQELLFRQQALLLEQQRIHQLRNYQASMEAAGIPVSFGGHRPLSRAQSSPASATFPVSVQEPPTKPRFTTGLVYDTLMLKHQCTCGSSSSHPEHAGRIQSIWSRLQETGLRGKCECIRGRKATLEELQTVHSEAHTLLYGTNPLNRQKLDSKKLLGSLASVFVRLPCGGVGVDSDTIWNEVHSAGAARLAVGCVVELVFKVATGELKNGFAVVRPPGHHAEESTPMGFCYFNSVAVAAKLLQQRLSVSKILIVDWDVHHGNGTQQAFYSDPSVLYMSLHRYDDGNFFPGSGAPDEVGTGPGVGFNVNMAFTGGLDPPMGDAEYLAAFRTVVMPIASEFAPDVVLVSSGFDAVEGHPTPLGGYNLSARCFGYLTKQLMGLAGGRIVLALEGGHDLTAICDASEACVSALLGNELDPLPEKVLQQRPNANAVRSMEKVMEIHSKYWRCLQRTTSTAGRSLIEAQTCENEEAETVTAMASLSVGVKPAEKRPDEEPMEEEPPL

HDAC3 = HDAC3 (Homo sapiens, UniProt O15379); experiment: HDAC inhibition assay, class I, fluorogenic peptide RHKK(Ac)AMC; assay type: biochemical; conditions: up to 50 µM
Sequence of HDAC3 (O15379 whole entry): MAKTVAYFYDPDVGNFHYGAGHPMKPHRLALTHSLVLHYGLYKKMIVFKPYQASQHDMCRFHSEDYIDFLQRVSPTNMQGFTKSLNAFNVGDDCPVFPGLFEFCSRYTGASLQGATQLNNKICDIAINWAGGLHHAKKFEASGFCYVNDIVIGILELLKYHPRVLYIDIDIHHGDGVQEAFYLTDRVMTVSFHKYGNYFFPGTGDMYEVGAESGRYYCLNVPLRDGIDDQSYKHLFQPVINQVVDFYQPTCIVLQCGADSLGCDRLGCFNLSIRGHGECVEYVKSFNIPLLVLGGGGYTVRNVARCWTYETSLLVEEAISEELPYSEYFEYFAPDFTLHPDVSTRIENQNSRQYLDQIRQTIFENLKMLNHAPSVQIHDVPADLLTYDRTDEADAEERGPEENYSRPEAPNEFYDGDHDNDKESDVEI
Sequence of HDAC3 (Q9Y618 395-489 partner limits assumed): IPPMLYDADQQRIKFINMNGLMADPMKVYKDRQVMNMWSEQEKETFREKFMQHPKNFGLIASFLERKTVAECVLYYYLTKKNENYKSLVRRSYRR

HDAC7 = target: T1, HDAC7 (Homo sapiens, UniProt Q8WUI4); experiment: HDAC inhibition assay, class II A, fluorogenic HDAC Class2a substrate; conditions: up to 100 µM
T1 sequence (Q8WUI4 1-952): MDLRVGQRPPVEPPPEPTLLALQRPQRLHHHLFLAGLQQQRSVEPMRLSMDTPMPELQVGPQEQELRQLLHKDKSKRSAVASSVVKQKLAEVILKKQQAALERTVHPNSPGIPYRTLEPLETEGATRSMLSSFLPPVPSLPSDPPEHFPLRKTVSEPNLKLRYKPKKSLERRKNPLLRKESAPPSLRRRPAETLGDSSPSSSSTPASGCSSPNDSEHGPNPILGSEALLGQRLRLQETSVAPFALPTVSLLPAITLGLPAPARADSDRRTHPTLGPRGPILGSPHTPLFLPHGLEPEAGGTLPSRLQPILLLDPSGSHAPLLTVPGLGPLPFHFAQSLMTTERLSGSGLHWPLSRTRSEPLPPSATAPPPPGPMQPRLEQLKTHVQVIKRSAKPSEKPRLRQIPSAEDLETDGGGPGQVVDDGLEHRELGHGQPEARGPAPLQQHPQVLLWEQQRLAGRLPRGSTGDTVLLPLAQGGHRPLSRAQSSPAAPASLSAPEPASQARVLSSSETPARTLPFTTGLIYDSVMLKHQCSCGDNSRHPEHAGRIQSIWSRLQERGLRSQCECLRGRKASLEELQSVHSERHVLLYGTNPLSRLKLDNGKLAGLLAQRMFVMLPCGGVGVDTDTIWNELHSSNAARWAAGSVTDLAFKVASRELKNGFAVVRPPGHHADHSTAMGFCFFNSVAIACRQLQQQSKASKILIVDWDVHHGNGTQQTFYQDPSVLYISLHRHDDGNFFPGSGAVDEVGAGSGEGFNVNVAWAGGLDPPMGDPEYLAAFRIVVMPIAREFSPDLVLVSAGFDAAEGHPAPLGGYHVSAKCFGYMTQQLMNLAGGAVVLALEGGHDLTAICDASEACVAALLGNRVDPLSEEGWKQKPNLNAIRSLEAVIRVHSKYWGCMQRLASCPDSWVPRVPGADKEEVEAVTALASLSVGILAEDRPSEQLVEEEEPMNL

HDAC6 = target: T2, HDAC6 (Homo sapiens, UniProt Q9UBN7); experiment: HDAC inhibition assay, class II B, fluorogenic peptide RHKK(Ac)AMC; assay type: biochemical
T2 sequence (Q9UBN7 1-1215): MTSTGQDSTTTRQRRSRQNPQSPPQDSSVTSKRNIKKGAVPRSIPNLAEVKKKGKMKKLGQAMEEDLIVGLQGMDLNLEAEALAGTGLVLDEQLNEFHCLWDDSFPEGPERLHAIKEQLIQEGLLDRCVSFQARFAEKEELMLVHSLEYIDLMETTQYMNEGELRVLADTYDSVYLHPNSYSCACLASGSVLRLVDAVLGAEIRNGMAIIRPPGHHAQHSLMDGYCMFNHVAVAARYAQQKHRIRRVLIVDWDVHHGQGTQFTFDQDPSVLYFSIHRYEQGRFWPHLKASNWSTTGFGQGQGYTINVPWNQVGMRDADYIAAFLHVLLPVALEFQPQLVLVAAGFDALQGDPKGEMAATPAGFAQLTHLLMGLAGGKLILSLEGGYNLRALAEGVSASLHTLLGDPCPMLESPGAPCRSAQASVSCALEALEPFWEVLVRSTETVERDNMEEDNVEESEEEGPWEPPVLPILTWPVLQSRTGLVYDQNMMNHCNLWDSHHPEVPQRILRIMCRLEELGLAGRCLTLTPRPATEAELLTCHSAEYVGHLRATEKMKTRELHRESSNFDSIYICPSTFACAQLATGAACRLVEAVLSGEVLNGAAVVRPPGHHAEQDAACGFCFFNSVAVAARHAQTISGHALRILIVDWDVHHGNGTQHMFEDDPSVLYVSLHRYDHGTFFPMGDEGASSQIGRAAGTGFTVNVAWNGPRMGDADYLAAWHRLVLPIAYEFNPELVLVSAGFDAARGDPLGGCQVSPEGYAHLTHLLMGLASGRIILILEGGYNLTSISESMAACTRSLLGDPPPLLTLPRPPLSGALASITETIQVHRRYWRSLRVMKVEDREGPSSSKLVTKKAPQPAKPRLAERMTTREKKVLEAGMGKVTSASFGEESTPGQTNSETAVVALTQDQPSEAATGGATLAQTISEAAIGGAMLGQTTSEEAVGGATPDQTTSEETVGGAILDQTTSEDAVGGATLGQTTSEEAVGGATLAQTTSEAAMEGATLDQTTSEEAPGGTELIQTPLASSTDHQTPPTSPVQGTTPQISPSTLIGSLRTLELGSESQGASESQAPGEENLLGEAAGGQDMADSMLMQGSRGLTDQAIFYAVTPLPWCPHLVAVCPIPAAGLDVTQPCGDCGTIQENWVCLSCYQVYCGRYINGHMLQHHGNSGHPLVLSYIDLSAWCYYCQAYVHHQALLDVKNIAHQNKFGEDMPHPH

HDAC9 = HDAC9 (Homo sapiens, UniProt Q9UKV0); experiment: HDAC inhibition assay, class II A, fluorogenic HDAC Class2a substrate; conditions: up to 100 µM
Sequence of HDAC9 (Q9UKV0 whole entry): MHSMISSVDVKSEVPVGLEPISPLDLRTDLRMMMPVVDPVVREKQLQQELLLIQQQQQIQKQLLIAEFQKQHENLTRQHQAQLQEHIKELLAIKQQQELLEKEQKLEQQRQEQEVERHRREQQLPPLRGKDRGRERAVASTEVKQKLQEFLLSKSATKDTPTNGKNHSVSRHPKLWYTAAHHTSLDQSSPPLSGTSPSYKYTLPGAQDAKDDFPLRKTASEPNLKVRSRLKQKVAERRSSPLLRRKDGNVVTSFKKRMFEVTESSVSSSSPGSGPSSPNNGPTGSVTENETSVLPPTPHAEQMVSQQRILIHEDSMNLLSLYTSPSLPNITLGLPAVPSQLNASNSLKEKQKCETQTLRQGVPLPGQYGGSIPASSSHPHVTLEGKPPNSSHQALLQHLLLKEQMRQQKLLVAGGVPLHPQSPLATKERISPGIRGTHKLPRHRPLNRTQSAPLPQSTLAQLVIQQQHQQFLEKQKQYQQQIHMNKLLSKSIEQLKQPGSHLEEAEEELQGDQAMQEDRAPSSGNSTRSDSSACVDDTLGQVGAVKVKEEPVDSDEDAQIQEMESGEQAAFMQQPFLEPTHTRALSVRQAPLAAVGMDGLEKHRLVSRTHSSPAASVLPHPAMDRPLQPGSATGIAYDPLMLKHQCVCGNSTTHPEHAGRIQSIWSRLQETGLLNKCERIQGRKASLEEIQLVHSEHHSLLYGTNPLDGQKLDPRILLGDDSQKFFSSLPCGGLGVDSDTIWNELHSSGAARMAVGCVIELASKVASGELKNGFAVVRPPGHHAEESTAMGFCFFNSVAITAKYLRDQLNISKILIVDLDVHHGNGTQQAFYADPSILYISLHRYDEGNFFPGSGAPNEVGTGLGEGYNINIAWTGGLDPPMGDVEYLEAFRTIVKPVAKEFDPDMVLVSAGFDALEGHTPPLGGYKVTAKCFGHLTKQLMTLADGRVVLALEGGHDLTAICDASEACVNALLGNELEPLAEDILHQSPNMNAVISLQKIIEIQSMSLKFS

HDAC2 = HDAC2 (Homo sapiens, UniProt Q92769); experiment: HDAC inhibition assay, class I, fluorogenic peptide RHKK(Ac)AMC; assay type: biochemical; conditions: up to 50 µM
Sequence of HDAC2 (Q92769 whole entry): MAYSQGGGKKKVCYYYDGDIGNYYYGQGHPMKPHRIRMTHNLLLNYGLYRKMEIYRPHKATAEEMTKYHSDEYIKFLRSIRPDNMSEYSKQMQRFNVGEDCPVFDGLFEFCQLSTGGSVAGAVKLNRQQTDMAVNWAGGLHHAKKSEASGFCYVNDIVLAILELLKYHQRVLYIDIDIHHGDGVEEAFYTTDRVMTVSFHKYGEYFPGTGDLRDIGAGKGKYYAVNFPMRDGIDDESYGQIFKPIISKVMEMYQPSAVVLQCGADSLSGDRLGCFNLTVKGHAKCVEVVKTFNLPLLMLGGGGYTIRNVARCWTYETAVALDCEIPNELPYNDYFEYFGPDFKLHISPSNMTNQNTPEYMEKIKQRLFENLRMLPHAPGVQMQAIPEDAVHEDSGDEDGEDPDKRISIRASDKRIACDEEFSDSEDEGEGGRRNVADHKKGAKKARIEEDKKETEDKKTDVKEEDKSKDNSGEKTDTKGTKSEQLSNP

HDAC8 = target: T3, HDAC8 (Homo sapiens, UniProt Q9BY41); experiment: HDAC inhibition assay, class I, fluorogenic peptide RHK(Ac)K(Ac)AMC; assay type: biochemical; conditions: up to 50 µM
T3 sequence (Q9BY41 1-377): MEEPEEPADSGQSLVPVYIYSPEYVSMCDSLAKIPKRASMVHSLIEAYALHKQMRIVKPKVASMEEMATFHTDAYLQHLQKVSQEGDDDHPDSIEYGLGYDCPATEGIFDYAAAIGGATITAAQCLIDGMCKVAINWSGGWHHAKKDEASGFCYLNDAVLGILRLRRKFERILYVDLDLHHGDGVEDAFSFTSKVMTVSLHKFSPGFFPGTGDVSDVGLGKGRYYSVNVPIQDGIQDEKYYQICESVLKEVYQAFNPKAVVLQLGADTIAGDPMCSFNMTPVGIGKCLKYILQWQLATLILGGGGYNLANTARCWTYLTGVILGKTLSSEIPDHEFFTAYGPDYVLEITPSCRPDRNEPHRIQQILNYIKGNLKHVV

HDAC1 = HDAC1 (Homo sapiens, UniProt Q13547); experiment: HDAC inhibition assay, class I, fluorogenic peptide RHKK(Ac)AMC; assay type: biochemical; conditions: up to 50 µM
Sequence of HDAC1 (Q13547 whole entry): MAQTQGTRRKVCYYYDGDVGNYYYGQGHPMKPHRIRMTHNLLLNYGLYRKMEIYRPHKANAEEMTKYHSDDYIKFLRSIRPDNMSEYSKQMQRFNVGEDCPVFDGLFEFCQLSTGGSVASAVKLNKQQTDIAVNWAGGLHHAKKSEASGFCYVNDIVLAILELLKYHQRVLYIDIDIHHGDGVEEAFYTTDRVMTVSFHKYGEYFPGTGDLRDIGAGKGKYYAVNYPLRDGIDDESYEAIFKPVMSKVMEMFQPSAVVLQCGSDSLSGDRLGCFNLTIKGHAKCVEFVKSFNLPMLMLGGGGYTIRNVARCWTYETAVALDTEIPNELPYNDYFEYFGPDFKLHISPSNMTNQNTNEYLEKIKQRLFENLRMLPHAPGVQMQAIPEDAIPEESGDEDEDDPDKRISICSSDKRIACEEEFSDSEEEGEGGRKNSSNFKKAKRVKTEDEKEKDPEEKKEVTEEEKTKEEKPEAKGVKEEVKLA

P-388 = P-388 cells; cited from earlier work
A549 = A549 cells; cited from earlier work
HT-29 = HT-29 cells; cited from earlier work

| inhibition of HDAC5 (HDAC5) | inhibition of HDAC4 (HDAC4) | inhibition of HDAC3 (HDAC3) | inhibition of HDAC7 (HDAC7) | IC50 (HDAC6; 10-dose, 3-fold serial dilution, Compound 3 in duplicate starting at 120 µM, read-out: IC50) [µM] | IC50 (HDAC6; as stated in text and legend of Figure 6, read-out: IC50) [µM] | HILLSLOPE (HDAC6; curve fit) | IC50 (HDAC6; curve fit printed in the picture of Figure 6, read-out: HDAC 6: EC50) [µM] | inhibition of HDAC9 (HDAC9) | inhibition of HDAC2 (HDAC2) | inhibition of HDAC8 (HDAC8) | inhibition of HDAC1 (HDAC1) | Structure (SMILES) | optimal concentration for apoptosis induction (W2 cells) [µM] | cell death in W2 cells (W2 cells) | cell death in D3 cells (D3 cells) | inhibition of HDAC6 (HDAC6) | cytotoxicity (P-388) | cytotoxicity (A549) | cytotoxicity (HT-29) |
| --- | --- | --- | --- | --- | --- | --- | --- | --- | --- | --- | --- | --- | --- | --- | --- | --- | --- | --- | --- |
| – | – | – | – | – | – | – | – | – | – | – | – | C=C1CC/C=C(\C)CC[C@@H]2C(C(CC3OC3(C)C)OC(C)=O)=CO[C@H](OC)[C@@H]12 (relative stereo) [Compound 2] | 11.5 | induce measurable cell death in W2 | not in D3 cells | – | – | – | – |
| did not significantly inhibit | did not significantly inhibit | did not significantly inhibit | did not significantly inhibit | 80.9 | ~80 | −1.19 | 80.9 | did not significantly inhibit | did not significantly inhibit | did not significantly inhibit | did not significantly inhibit | C=C1CC[C@@H]2O[C@@]2(C)CC[C@H](/C(=C/CC2OC2(C)C)CO)[C@H]1C(=O)OC (relative stereo) [Compound 3] | 1.2 | induce measurable cell death in W2 | not in D3 cells | inhibits selectively HDAC6 in high micromolar concentrations | – | – | – |
| – | – | – | – | – | – | – | – | – | – | – | – | C=C1CC[C@@H]2O[C@@]2(C)CC[C@H](/C(=C\CC2OC2(C)C)COC(C)=O)[C@H]1C(=O)OC (stereo partly shown) [xenitacin] | – | – | – | – | most active compound in its group | most active compound in its group | most active compound in its group |
